# Test results published in US20240325394A1, “SALT AND CRYSTAL FORM OF NITROGEN-CONTAINING HETEROCYCLIC DERIVATIVE, PREPARATION METHOD THEREFOR AND APPLICATION THEREOF” (SHANGHAI HANSOH BIOMEDICAL CO., LTD., priority 2020, published 2024).
# Tests used:
# [1] = Plasma stability, mouse plasma; assay type: in vitro ADME; conditions: mouse plasma, 37° C.
# Experimental: (§1) Animal or human whole blood was collected, then the blood was put into a test tube containing anticoagulant, centrifuged at 3500 rpm for 10 min, and the upper layer of pale yellow plasma was collected. • 2) 10 μM of tested compound (m/M/V=C)
# (§2) The compound was weighed, the stock solution was prepared with DMSO and the working solution was prepared with 100 mM phosphate buffer. • 3) 10 μM of positive control • (1) Propantheline (Propantheline Mr=449.4 Da)
# (§3) • 1) 285 μL of plasma and 15 μL of 10 μM compound (tested compound) were added in turn in a 96-well plate, and incubated at 37° C. • 2) 40 μL was taken out at 0, 15, 30, 60, 90, 120 min, respectively, and 160 μL of acetonitrile termination solution containing internal standard was added. • 3) After centrifugation (3500 rpm, 10 min), 50 μL of supernatant was taken out, and then diluted with 50 μL DDH2O and injected to LC-MS/MS.
# (§4) • instrument: Shimadzu LC-20 AD • chromatographic column: phenomenex Gemiu® C18 (50*4.6 mm, 5 μM particle size); • mobile phase: A: acetonitrile, B: 0.1% formic acid solution 0-8 min: 5% A→95% A, 2.0-2.1 min: 90% A→5% A; flow rate: 0.8 mL/min; running time: 5.0 min; injection volume: 5 μL.
# (§5) • instrument: API4000 Liquid Chromatography-Mass Spectrometry, AB, USA; • the ion source was electrospray ionization source (ESI); • the temperature of dry gas (N2) was 500° C.; • electrospray voltage was 5500V; • the detection method was positive ion detection; • the scanning mode was selective response monitoring (MRM); • the scanning time was 0.1 s.
# [2] = Plasma stability, rat plasma; assay type: in vitro ADME; conditions: rat plasma, 37° C.
# Experimental: as §1, §2, §3, §4, §5
# hERG potassium channel = target: T1, hERG potassium channel (Homo sapiens, UniProt Q12809); test: hERG potassium channel inhibitory activity test (Qpatch, CHO-hERG cells); assay type: cell-based; conditions: highest test concentration 40 μM, read-out: hERG (μM), inhibition at multiple concentrations on hERG current
# T1 construct: expressed in transfected cells; host or cells: CHO-hERG cells
# Experimental: 7.1.1 CHO-hERG cells were cultured in a 175 cm^2 flask, when the cell density reached 60-80%, the culture medium was removed, the cells were washed with 7 mL PBS, and then digested with 3 mL Detachin. 7.1.2 After complete digestion, 7 mL culture medium was added to neutralize, then the mixture was centrifuged, the supernatant was aspirated, and then 5 mL culture medium was added to re-suspend, ensuring 2-5×10^6/mL of cell density.
# The process of single cell high impedance sealing and whole cell mode formation were all automatically completed by Qpatch instrument, after obtaining the whole cell recording mode, the cells were clamped at −80 mV, before giving a 5-second +40 mV depolarization stimulus, a 50 millisecond −50 mV prevoltage was given first, and then repolarized to −50 mV for 5 seconds, then returned to −80 mV. This voltage stimulation was applied every 15 seconds and recorded for 2 minutes before giving extracellular fluid recordings for 5 minutes, and then the administration process was started, the compound concentration was given from the lowest test concentration, each test concentration was given for 2.5 minutes, and the positive control compound 3 μM of Cisapride was given after all concentrations were continuously given. At least 3 cells (n≥3) were tested at each concentration.
# 7.4.1 20 mM of compound mother liquor was diluted with extracellular fluid, 5 μL of 20 mM compound mother liquor was added into 2495 μL of extracellular fluid and diluted 500-fold to 40 μM, and then the final concentration to be tested was obtained by sequential 3-fold serial dilutions in extracellular solution containing 0.2% DMSO. 7.4.2 The highest test concentration was 40 μM, in a total of 6 concentrations of 40, 13.33, 4.44, 1.48, 0.49 and 0.16 μM respectively. 7.4.3 The content of DMSO in the final test concentration was not more than 0.2%, and this concentration of DMSO had no effect on hERG potassium channel.
# The experimental data were analyzed by XLFit software. […]
# [3] = Plasma stability, human plasma; assay type: in vitro ADME; conditions: human, 0.5 μM
# Experimental: as §1, §2, §3, §4, §5
# [4] = Plasma stability, dog plasma; assay type: in vitro ADME; conditions: dog plasma, 37° C.
# Experimental: as §1, §2, §3, §4, §5
# T1 sequence (Q12809 whole entry): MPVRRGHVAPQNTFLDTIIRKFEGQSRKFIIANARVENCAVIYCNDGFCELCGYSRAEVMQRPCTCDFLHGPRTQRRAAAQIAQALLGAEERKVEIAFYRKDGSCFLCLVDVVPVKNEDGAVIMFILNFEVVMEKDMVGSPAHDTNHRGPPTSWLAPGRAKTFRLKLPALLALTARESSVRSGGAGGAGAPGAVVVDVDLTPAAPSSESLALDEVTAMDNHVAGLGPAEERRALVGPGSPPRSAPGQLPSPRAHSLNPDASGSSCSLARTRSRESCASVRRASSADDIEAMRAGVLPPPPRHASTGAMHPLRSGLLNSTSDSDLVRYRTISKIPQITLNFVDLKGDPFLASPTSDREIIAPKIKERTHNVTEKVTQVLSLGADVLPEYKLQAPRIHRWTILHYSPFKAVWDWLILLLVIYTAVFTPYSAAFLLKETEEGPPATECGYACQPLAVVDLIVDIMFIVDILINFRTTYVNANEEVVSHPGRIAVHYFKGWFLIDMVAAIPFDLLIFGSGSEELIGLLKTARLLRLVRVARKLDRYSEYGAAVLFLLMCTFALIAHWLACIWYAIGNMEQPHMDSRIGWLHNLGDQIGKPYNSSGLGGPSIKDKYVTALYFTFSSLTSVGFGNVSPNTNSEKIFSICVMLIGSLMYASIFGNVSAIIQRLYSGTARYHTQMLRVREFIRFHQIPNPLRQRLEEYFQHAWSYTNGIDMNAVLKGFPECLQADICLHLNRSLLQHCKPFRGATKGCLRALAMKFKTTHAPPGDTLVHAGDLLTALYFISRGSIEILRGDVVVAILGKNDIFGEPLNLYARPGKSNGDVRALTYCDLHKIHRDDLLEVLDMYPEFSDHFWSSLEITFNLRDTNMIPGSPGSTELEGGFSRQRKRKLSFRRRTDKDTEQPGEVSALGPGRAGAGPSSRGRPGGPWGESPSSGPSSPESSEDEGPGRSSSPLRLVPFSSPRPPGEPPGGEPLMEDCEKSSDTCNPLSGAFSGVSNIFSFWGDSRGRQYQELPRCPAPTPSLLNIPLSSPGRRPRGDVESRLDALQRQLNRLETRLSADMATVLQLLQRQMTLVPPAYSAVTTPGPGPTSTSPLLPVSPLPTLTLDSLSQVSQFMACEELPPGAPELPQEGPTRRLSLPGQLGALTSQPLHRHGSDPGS
compound,measurement,setting,value
"C=CC(=O)N1C[C@H](C)N(c2nc(=O)n(-c3c(SC)ccnc3C(C)C)c3nc(-c4c(O)cccc4F)c(Cl)cc23)C[C@H]1C (atropisomer, axis not shown) [Embodiment 14-1, P-4-((2S,5R)-4-Acryloyl-2,5-dimethylpiperazin-1-yl)-6-chloro-7-(2-fluoro-6-hydroxyphenyl)-1-(2-isopropyl-4-(methylthio)pyridin-3-yl)pyrido[2,3-d]pyrimidin-2(1H)-one]",Residual rate (%) 0 min,[1]; 0 min,100.00%
same,Residual rate (%) 15 min,[1]; 15 min,105.42%
same,Residual rate (%) 30 min,[1]; 30 min,100.02%
same,Residual rate (%) 60 min,[1]; 60 min,99.12%
same,Residual rate (%) 120 min,[1]; 120 min,85.55%
same,Residual rate (%) 0 min,[2]; 0 min,100.00%
same,Residual rate (%) 15 min,[2]; 15 min,93.20%
same,Residual rate (%) 30 min,[2]; 30 min,98.32%
same,Residual rate (%) 60 min,[2]; 60 min,99.08%
same,Residual rate (%) 120 min,[2]; 120 min,96.46%
same,IC50,hERG potassium channel,> 30 µM
same,Residual rate (%) 0 min,[3]; 0 min,100.00%
same,Residual rate (%) 15 min,[3]; 15 min,99.15%
same,Residual rate (%) 30 min,[3]; 30 min,94.74%
same,Residual rate (%) 60 min,[3]; 60 min,89.14%
same,Residual rate (%) 120 min,[3]; 120 min,78.85%
same,Residual rate (%) 0 min,[4]; 0 min,100.00%
same,Residual rate (%) 15 min,[4]; 15 min,99.98%
same,Residual rate (%) 30 min,[4]; 30 min,98.79%
same,Residual rate (%) 60 min,[4]; 60 min,93.69%
same,Residual rate (%) 120 min,[4]; 120 min,86.16%
